# Reference: patent publication US8884013B2, “Polymorphs of Dasatinib, preparation methods and pharmaceutical compositions thereof” (Nan Jing Cavendish Bio-Engineering Technology Co., Ltd., priority 2010, dated 2014)
# Assay: Comparative test on stability: destruction experiment, related substances by HPLC
# Assay type: physicochemical
# Method: The methods of destruction experiment of the Polymorph I and II of this invention (hereinafter referred to as ‘Polymorph I’ and ‘Polymorph II’) contrasting with the Polymorph A of Dasatinib prepared by the method in CN200580011916.6 (hereinafter referred to as ‘916.6 Polymorph A’) and results of stability are followed:
# Oxidation destruction: 50 mg of sample weighted accurately was added into measuring flask of 100 mL, and 10 mL 30% H2O2 was added. After standing at room temperature for 2 hour, the mixture was diluted with mobile phase to scale and shook to be homogeneous, and determined by HPLC.
# Acid destruction: 50 mg of sample weighted accurately was added into measuring flask of 100 mL, and 10 mL 1 mol/L HCl solution was added. After standing at 40° C. for 1 hour, an equal amount of 1 mol/L NaOH solution was added for neutralization. Then the mixture was diluted with mobile phase to scale and shook to be homogeneous, and determined by HPLC.
# Alkali destruction: 50 mg of sample weighted accurately was added into measuring flask of 100 mL, and 10 mL 1 mol/L NaOH solution was added. After standing at 40° C. for 1 hour, an equal amount of 1 mol/L HCl solution was added for neutralization. Then the mixture was diluted with mobile phase to scale and shook to be homogeneous, and determined by HPLC.
# Illumination destruction: 50 mg of sample weighted accurately was added into measuring flask of 100 mL, dissolved and diluted with mobile phase to be the solution containing 0.5 mg Dasatinib per milliliter. After standing under illumination of 4000 lx for 6 hour, the mixture was determined by HPLC.
# High temperature destruction: 50 mg of sample weighted accurately was added into measuring flask of 100 mL, dissolved and diluted with mobile phase to be the solution containing 0.5 mg Dasatinib per milliliter. After standing in homothermal water bath of 60° C. for 4 hour, the mixture was cooled and then determined by HPLC.
# Related Substances Determination
# HPLC conditions and system applicability: octadecylsilane bonded silica as the filler; 0.05 mol/L of potassium dihydrogen phosphate (adjusted to pH 2.5 by phosphoric acid, 0.2% triethylamine)-methanol (45:55) as the mobile phase; detection wavelength was 230 nm; the number of theoretical plates should be not less than 2000, calculated according to the peak of Dasatinib. The resolution of the peak of Dasatinib from the peaks of adjacent impurities should meet requirements.
# Determination method: sample was dissolved in mobile phase to be the solution containing 0.5 mg per milliliter. 20 μL of such solution was injected into liquid chromatograph, and chromatogram was recorded until the sixfold retention time of major component peak. If there were impurities peaks in the chromatogram of sample solution, total impurities and any single impurity were calculated by normalization method on the basis of peak area.
compound,measurement,setting,value
"Cc1nc(Nc2ncc(C(=O)Nc3c(C)cccc3Cl)s2)cc(N2CCN(CCO)CC2)n1 [916.6 Polymorph A, N-(2-chloro-6-methylphenyl)-2-[[6-[4-(2-hydroxyethyl)-1-piperazinyl]-2-methyl-4-pyrimidyl]amino]-5-thiazolformamide, reference compound]",Stability by comparison with Polymorph I,,worse performance in stability
same,Impurity tR3.580,1 mol/L acid destruction,0.01%
same,Impurity tR4.106,1 mol/L acid destruction,0.02%
same,Impurity tR5.001,1 mol/L acid destruction,0.02%
same,Total impurities,"1 mol/L acid destruction (HCl, 40° C., 1 hour)",0.06%
same,Impurity tR4.107,1 mol/L alkali destruction,0.01%
same,Impurity tR5.007,1 mol/L alkali destruction,0.03%
same,Impurity tR5.351,1 mol/L alkali destruction,0.03%
same,Impurity tR8.943,1 mol/L alkali destruction,0.01%
same,Total impurities,"1 mol/L alkali destruction (NaOH, 40° C., 1 hour)",0.11%
same,Impurity tR4.135,before destruction,0.02%
same,Impurity tR5.092,before destruction,0.02%
same,Impurity tR5.523,before destruction,0.03%
same,Total impurities,before destruction,0.07%
same,Impurity tR4.118,high temperature destruction,0.02%
same,Impurity tR5.081,high temperature destruction,0.03%
same,Impurity tR5.502,high temperature destruction,0.03%
same,Total impurities,"high temperature destruction (60° C. water bath, 4 hour, in solution)",0.08%
same,Impurity tR2.456,illumination destruction,0.30%
same,Impurity tR3.732,illumination destruction,0.14%
same,Impurity tR4.589,illumination destruction,0.11%
same,Impurity tR5.088,illumination destruction,0.06%
same,Impurity tR5.503,illumination destruction,0.19%
same,Impurity tR10.095,illumination destruction,0.82%
same,Total impurities,"illumination destruction (4000 lx, 6 hour, in solution)",1.89%
same,Impurity tR4.123,oxidation destruction,0.01%
same,Impurity tR4.584,oxidation destruction,0.02%
same,Impurity tR5.089,oxidation destruction,0.02%
same,Impurity tR5.504,oxidation destruction,0.05%
same,Impurity tR9.450,oxidation destruction,2.30%
same,Total impurities,"oxidation destruction (30% H2O2, room temperature, 2 hour)",2.41%
